Test results reported in patent US9518061B2, “Substituted pyrazolylpyrazole derivative and use of same as herbicide” (KYOYU AGRI CO., LTD., priority 2013, dated 2016).

Columns and labels:
[1] = test system: Echinochloa crus-galli; test: Paddy herbicidal activity test; type: in vivo; details: irrigated paddy pot, treated at 3.5 leaf stage of Echinochloa crus-galli, 30 days
Experimental: (§1) 1. Paddy Herbicidal Activity Test
(§2) Rice paddy soil was filled into a 1/10000 are pot followed by the addition of suitable amounts of water and chemical fertilizer, kneading, seeding with Echinochloa crus-galli, Monochoria vaginalis and Scirpus juncoides and maintaining in an irrigated state at a water depth of 3 cm.
(§3) Wettable powder of Target Compound (I) shown in Table 1 prepared in compliance with the preparation examples were diluted with a suitable amount of water, rice plants in the 2.0 leaf stage were transplanted during 3.5 leaf stage of Echinochloa crus-galli, and treated by dropping in chemical in the prescribed amount per are using a pipette.
(§4) After treating for 30 days in a glass greenhouse at an average atmospheric temperature of 30° C., the herbicidal efficacy thereof was investigated.
(§5) Evaluation of herbicidal efficacy was carried out by comparing growth inhibition rate (%) with an untreated group, while evaluation of phytotoxicity was carried out by comparing growth inhibition rate (%) with the state of a complete eradication group, and were evaluated at 11 levels indicated below.

[2] = test system: Monochoria vaginalis; test: Paddy herbicidal activity test; type: in vivo; details: irrigated paddy pot, 30 days
Experimental: as §1, §2, §3, §4, §5

[3] = test system: Scirpus juncoides; test: Paddy herbicidal activity test; type: in vivo; details: irrigated paddy pot, 30 days
Experimental: as §1, §2, §3, §4, §5

[4] = test system: Digitaria ciliaris; test: Weed foliar treatment test; type: in vivo; details: foliar spray at 1.0 to 2.0 leaf stage of Digitaria ciliaris, 3 weeks
Experimental: (§6) 3. Weed Foliar Treatment Test
(§7) Soil was filled into a 1/6000 are pot followed by seeding with Digitaria ciliaris, Chenopodium album and Amaranthus retroflexus, covering with soil, and cultivating in a glass greenhouse at an average atmospheric temperature of 25° C.
(§8) Wettable powder of Target Compound (I) shown in Table 1 prepared in compliance with the preparation examples were diluted with water to the prescribed amount of chemical and uniformly sprayed onto the weeds using 15 liters of sprayed water per are when Digitaria ciliaris had grown to the 1.0 to 2.0 leaf stage.
(§9) After treating for 3 weeks in a glass greenhouse at an average atmospheric temperature of 25° C., the herbicidal efficacy thereof was investigated.
(§10) Evaluation of herbicidal efficacy was carried out in the same manner as the above-mentioned Test Example 1.

[5] = test system: Chenopodium album; test: Weed foliar treatment test; type: in vivo; details: foliar spray, 3 weeks
Experimental: as §6, §7, §8, §9, §10

[6] = test system: Amaranthus retroflexus; test: Weed foliar treatment test; type: in vivo; details: foliar spray, 3 weeks
Experimental: as §6, §7, §8, §9, §10

[7] = test system: Rice plants; test: Paddy herbicidal activity test, phytotoxicity to transplanted rice; type: in vivo; details: rice transplanted in 2.0 leaf stage, 30 days
Experimental: as §1, §2, §3, §4, §5

[8] = test system: Digitaria ciliaris; test: Farming soil treatment test; type: in vivo; details: soil surface spray prior to weed growth, 30 days
Experimental: (§11) 2. Farming Soil Treatment Test
(§12) Field soil was filled into a 1/6000 are pot followed by seeding with Digitaria ciliaris, Chenopodium album and Amaranthus retroflexus and covering with soil.
(§13) Wettable powder of compounds of formula (D shown in Table 1 prepared in compliance with the preparation examples were diluted with water to the prescribed amount of chemical and uniformly sprayed onto each soil surface layer using 10 liters of sprayed water per are prior to weed growth following seeding.
as §4, §10

[9] = test system: Chenopodium album; test: Farming soil treatment test; type: in vivo; details: soil surface spray prior to weed growth, 30 days
Experimental: as §11, §12, §13, §4, §10

[10] = test system: Amaranthus retroflexus; test: Farming soil treatment test; type: in vivo; details: soil surface spray prior to weed growth, 30 days
Experimental: as §11, §12, §13, §4, §10

| SMILES | herbicidal efficacy (growth inhibition rate level) Echinochloa crus-galli ([1]; 1g a.i./10a) | herbicidal efficacy (growth inhibition rate level) Echinochloa crus-galli ([1]; 5g a.i./10a) | herbicidal efficacy (growth inhibition rate level) Monochoria vaginalis ([2]; 1g a.i./10a) | herbicidal efficacy (growth inhibition rate level) Monochoria vaginalis ([2]; 5g a.i./10a) | herbicidal efficacy (growth inhibition rate level) Scirpus juncoides ([3]; 1g a.i./10a) | herbicidal efficacy (growth inhibition rate level) Scirpus juncoides ([3]; 5g a.i./10a) | herbicidal efficacy (growth inhibition rate level) Digitaria ciliaris ([4]; 5g a.i./10a) | herbicidal efficacy (growth inhibition rate level) Digitaria ciliaris ([4]; 10g a.i./10a) | herbicidal efficacy (growth inhibition rate level) Chenopodium album ([5]; 5g a.i./10a) | herbicidal efficacy (growth inhibition rate level) Chenopodium album ([5]; 10g a.i./10a) | herbicidal efficacy (growth inhibition rate level) Amaranthus retroflexus ([6]; 5g a.i./10a) | herbicidal efficacy (growth inhibition rate level) Amaranthus retroflexus ([6]; 10g a.i./10a) | phytotoxicity (growth inhibition rate level) Rice plants ([7]; 1g a.i./10a) | phytotoxicity (growth inhibition rate level) Rice plants ([7]; 5g a.i./10a) | herbicidal efficacy (growth inhibition rate level) Digitaria ciliaris ([8]; 5g a.i./10a) | herbicidal efficacy (growth inhibition rate level) Digitaria ciliaris ([8]; 10g a.i./10a) | herbicidal efficacy (growth inhibition rate level) Chenopodium album ([9]; 5g a.i./10a) | herbicidal efficacy (growth inhibition rate level) Chenopodium album ([9]; 10g a.i./10a) | herbicidal efficacy (growth inhibition rate level) Amaranthus retroflexus ([10]; 5g a.i./10a) | herbicidal efficacy (growth inhibition rate level) Amaranthus retroflexus ([10]; 10g a.i./10a) | other results |
| --- | --- | --- | --- | --- | --- | --- | --- | --- | --- | --- | --- | --- | --- | --- | --- | --- | --- | --- | --- | --- | --- |
| N#Cc1cnn(-c2nn3c(c2Cl)CCCC3)c1N(CCCl)C(=O)C(F)(F)F [Compound 1, N-(2-chloroethyl)-N-(1-(3-chloro-4,5,6,7-tetrahydropyrazolo[1,5-a]pyridin-2-yl)-4-cyanopyrazol-5-yl)-2,2,2-trifluoroacetamide] | 9 (90% to less than 100%) | 10 (100%) | 8 (80% to less than 90%) | 9 (90% to less than 100%) | 9 (90% to less than 100%) | 10 (100%) | 10 (100%) | 10 (100%) | 10 (100%) | 10 (100%) | 10 (100%) | 10 (100%) | 0 (0 (exponent): 0% to less than 10% (growth inhibition rate)) | 1 (10% to less than 20%) | 10 (100%) | 10 (100%) | 10 (100%) | 10 (100%) | 10 (100%) | 10 (100%) | melting point: 87 to 89 °C |
| N#Cc1cnn(-c2nn3c(c2Cl)CCCC3)c1NC(=O)C(F)(F)F [Control agent 4.185] | 2 (20% to less than 30%) | 4 (40% to less than 50%) | 0 (0 (exponent): 0% to less than 10% (growth inhibition rate)) | 0 (0 (exponent): 0% to less than 10% (growth inhibition rate)) | 5 (50% to less than 60%) | 6 (60% to less than 70%) | 4 (40% to less than 50%) | 6 (60% to less than 70%) | 5 (50% to less than 60%) | 6 (60% to less than 70%) | 6 (60% to less than 70%) | 6 (60% to less than 70%) | 2 (20% to less than 30%) | 2 (20% to less than 30%) | 3 (30% to less than 40%) | 5 (50% to less than 60%) | 4 (40% to less than 50%) | 5 (50% to less than 60%) | 5 (50% to less than 60%) | 6 (60% to less than 70%) | – |
| CN(C(=O)C(F)(F)F)c1c(C#N)cnn1-c1nn2c(c1Cl)CCCC2 [Control agent 4.237] | 1 (10% to less than 20%) | 4 (40% to less than 50%) | 2 (20% to less than 30%) | 3 (30% to less than 40%) | 2 (20% to less than 30%) | 4 (40% to less than 50%) | 5 (50% to less than 60%) | 6 (60% to less than 70%) | 4 (40% to less than 50%) | 5 (50% to less than 60%) | 4 (40% to less than 50%) | 6 (60% to less than 70%) | 1 (10% to less than 20%) | 2 (20% to less than 30%) | 4 (40% to less than 50%) | 5 (50% to less than 60%) | 4 (40% to less than 50%) | 4 (40% to less than 50%) | 5 (50% to less than 60%) | 5 (50% to less than 60%) | – |
| COCCN(C(=O)C(F)(F)F)c1c(C#N)cnn1-c1nn2c(c1Cl)CCCC2 [Compound 2, N-(1-(3-chloro-4,5,6,7-tetrahydropyrazolo[1,5-a]pyridin-2-yl)-4-cyanopyrazol-5-yl)-N-(2-methoxyethyl)-2,2,2-trifluoroacetamide] | 9 (90% to less than 100%) | 9 (90% to less than 100%) | 8 (80% to less than 90%) | 9 (90% to less than 100%) | 9 (90% to less than 100%) | 9 (90% to less than 100%) | 10 (100%) | 10 (100%) | 10 (100%) | 10 (100%) | 10 (100%) | 10 (100%) | 0 (0 (exponent): 0% to less than 10% (growth inhibition rate)) | 1 (10% to less than 20%) | 10 (100%) | 10 (100%) | 10 (100%) | 10 (100%) | 10 (100%) | 10 (100%) | melting point: 102 to 103 °C |
